Experiments:
IL-6 = IL-6 mRNA expression in intestinal tissue of DSS-induced ulcerative colitis rats (real-time PCR); format: in vivo, rat
Method: (§1) Male LEW/SsN rats were given free access to 3% dextran sulfate sodium (DSS) in drinking water to induce ulcerative colitis. (−)-7-{(2R,4aR,5R,/aR)-2-[(3S)-1,1-difluoro-3-methylpentyl]-2-hydroxy-6-oxooctahydrocyclopenta[b]pyran-5-yl}heptanoic acid (Compound A) was orally administered to the animals twice a day for 10 days. The same amount of the vehicle was administered to control animals. At the 10 days after start of 3% DSS drinking, animals were sacrificed and intestinal tissues were excised. The mRNA expressions of IL-12, IL-1beta, IL-6, and TNF-alpha in the intestinal tissues were measured by real-time polymerase chain reaction technique.
(§2) Each value is relative to the reference gene (GAPDH) level. Data are represented as mean (Arbitrary unit) from 3 to 4 animals.

IL-1beta = IL-1beta mRNA expression in intestinal tissue of DSS-induced ulcerative colitis rats (real-time PCR); format: in vivo, rat
Method: as §1, §2

TNF-alpha = TNF-alpha mRNA expression in intestinal tissue of DSS-induced ulcerative colitis rats (real-time PCR); format: in vivo, rat
Method: as §1, §2

IL-12 = IL-12 mRNA expression in intestinal tissue of DSS-induced ulcerative colitis rats (real-time PCR); format: in vivo, rat
Method: as §1, §2

[1] = Incidence of esophagitis in patients who take NSAIDs (naproxen); format: in vivo, human; details: patients on 500 mg naproxen twice a day
Method: Patients who take NSAIDs were randomized to one of four treatment groups. All patients received 500 mg of naproxen twice a day. One group received placebo while the other three groups received 18, 36 or 54 mcg of Compound A, respectively, for 12 weeks. The incidence of esophagitis was 10.0%, 6.5% or 6.5% for the groups received 18, 36 or 54 mcg of Compound A, respectively, while it was 20.0% for the group received placebo.

SOCS-1 = SOCS-1 expression in colon of DSS-induced colitis model mice (real-time PCR); format: in vivo, mouse; details: C57/B6J mice, 2% DSS for 7 days, 10 μM solution orally once daily for 7 days, GAPDH as reference
Method: The experimental model used C57/B6J mice (7-8 weeks old). Colitis was induced by administration of 2% dextran sulfate sodium (DSS) in drinking water for 7 days. Ten (10) μM solution of Compound B ((−)-7-[(2R,4aR,5R,7aR)-2-(1,1-difluoropentyl)-2-hydroxy-6-oxooctahydrocyclopenta[b]pyran-5-yl]heptanoic acid) was administered orally once daily for 7 days from the day of starting DSS treatment. One day after last administration, animals were sacrificed and colons were excised. After extraction of mRNA from colon tissues, real-time PCR analysis of SOCS-1 was conducted using house-keeping gene GAPDH as a reference.

[2] = DSS-induced ulcerative colitis model rats, versus vehicle control
[3] = male LEW/SsN rats, 3% DSS drinking water, oral twice a day for 10 days, intestinal tissue, mean from 3 to 4 animals

| Structure (SMILES) | effect on expression of IL-6 increased by DSS (in words) (IL-6; [2]) | expression of IL-6 (mRNA, relative to GAPDH) (IL-6; [3]) [Arbitrary unit] | effect on expression of IL-1beta increased by DSS (in words) (IL-1beta; [2]) | expression of IL-1beta (mRNA, relative to GAPDH) (IL-1beta; [3]) [Arbitrary unit] | effect on expression of TNF-alpha increased by DSS (in words) (TNF-alpha; [2]) | expression of TNF-alpha (mRNA, relative to GAPDH) (TNF-alpha; [3]) [Arbitrary unit] | effect on expression of IL-12 increased by DSS (in words) (IL-12; [2]) | expression of IL-12 (mRNA, relative to GAPDH) (IL-12; [3]) [Arbitrary unit] | incidence of esophagitis ([1]; 18 mcg for 12 weeks (placebo 20.0%)) [%] | incidence of esophagitis ([1]; 36 mcg for 12 weeks (placebo 20.0%)) [%] | incidence of esophagitis ([1]; 54 mcg for 12 weeks (placebo 20.0%)) [%] | effect on overexpression of SOCS-1 gene (in words) (SOCS-1) |
| --- | --- | --- | --- | --- | --- | --- | --- | --- | --- | --- | --- | --- |
| CC[C@H](C)CC(F)(F)[C@@]1(O)CC[C@H]2[C@@H](CC(=O)[C@@H]2CCCCCCC(=O)O)O1 [Compound A, (−)-7-{(2R,4aR,5R,/aR)-2-[(3S)-1,1-difluoro-3-methylpentyl]-2-hydroxy-6-oxooctahydrocyclopenta[b]pyran-5-yl}heptanoic acid] | reduced | 49.25 | reduced | 54.83 | reduced | 4.68 | reduced | 0.99 | 10.0 | 6.5 | 6.5 |  |
| CCCCC(F)(F)[C@@]1(O)CC[C@H]2[C@@H](CC(=O)[C@@H]2CCCCCCC(=O)O)O1 [Compound B, (−)-7-[(2R,4aR,5R,7aR)-2-(1,1-difluoropentyl)-2-hydroxy-6-oxooctahydrocyclopenta[b]pyran-5-yl]heptanoic acid] |  |  |  |  |  |  |  |  |  |  |  | reduced |

— US20120270945A1, “METHOD FOR MODULATING CYTOKINE ACTIVITY” (SUCAMPO AG, priority 2011, published 2012)
